ChEMBL document CHEMBL1909046, “DrugMatrix in vitro pharmacology data”

Experiments:
Acetylcholinesterase = Acetylcholinesterase (Homo sapiens, UniProt P22303); assay: DRUGMATRIX: Acetylcholinesterase enzyme inhibition (substrate: acetylthiocholine); assay type: cell-based, HEK293; settings: hek293; Not Active = under 50% inhibition at 10 µM
[1] = molecular target: Tyrosine-protein kinase Lck (Homo sapiens, UniProt P06239); assay: DRUGMATRIX: Protein Tyrosine Kinase, LCK enzyme inhibition (substrate: Poly(Glu:Tyr)); assay type: cell-based, Insect cells; settings: insect cells; Not Active = under 50% inhibition at 10 µM
Chain of Tyrosine-protein kinase Lck (P06239 whole entry): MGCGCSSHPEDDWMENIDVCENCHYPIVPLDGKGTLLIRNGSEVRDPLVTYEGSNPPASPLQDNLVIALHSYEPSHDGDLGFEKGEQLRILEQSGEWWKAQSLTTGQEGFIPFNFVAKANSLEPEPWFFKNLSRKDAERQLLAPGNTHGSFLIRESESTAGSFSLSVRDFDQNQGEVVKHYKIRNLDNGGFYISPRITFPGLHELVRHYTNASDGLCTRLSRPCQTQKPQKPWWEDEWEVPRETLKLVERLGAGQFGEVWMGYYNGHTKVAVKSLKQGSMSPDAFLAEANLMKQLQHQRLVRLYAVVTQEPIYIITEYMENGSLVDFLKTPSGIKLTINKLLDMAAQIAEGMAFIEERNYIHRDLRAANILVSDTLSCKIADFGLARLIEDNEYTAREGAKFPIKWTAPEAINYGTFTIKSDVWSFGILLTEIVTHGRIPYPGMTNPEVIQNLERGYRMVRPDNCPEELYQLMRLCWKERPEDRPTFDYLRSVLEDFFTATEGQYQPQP

Substance-P receptor = Substance-P receptor (Homo sapiens, UniProt P25103); assay type: cell membranes, CHO, Membrane; settings: cho; further: in other assays of this panel Not Active means under 50% inhibition at 10 µM
Chain of Substance-P receptor (P25103 whole entry): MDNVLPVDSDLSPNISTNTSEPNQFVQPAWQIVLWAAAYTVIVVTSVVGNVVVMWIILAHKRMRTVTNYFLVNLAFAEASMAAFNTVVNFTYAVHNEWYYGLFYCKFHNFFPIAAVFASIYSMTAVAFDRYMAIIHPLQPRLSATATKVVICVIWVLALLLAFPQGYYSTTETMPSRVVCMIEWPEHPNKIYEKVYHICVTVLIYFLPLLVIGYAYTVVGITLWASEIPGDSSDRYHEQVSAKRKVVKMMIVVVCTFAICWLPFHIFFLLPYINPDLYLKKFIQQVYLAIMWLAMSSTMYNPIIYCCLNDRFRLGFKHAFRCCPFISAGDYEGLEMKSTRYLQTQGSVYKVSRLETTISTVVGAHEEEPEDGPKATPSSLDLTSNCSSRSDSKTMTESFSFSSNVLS

Cathepsin G = molecular target: T1, Cathepsin G (Homo sapiens, UniProt P08311); assay type: tissue-based; settings: neutrophil;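 further: inhibition of Cathepsin G enzyme activity, tested on an AMC-conjugated peptide substrate; in other assays of this panel Not Active means under 50% inhibition at 10 µM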
T1 sequence (P08311 whole entry): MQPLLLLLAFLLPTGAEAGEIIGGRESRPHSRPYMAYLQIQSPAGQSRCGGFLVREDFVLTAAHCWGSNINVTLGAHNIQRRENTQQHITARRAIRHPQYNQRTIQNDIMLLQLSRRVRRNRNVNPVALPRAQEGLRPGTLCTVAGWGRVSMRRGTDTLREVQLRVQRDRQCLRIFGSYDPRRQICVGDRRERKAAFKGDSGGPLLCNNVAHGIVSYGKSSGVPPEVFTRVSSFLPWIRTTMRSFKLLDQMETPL

[2] = molecular target: T2, 5-hydroxytryptamine receptor 2C (Homo sapiens, UniProt P28335); assay: DRUGMATRIX: Serotonin (5-Hydroxytryptamine) 5-HT2C radioligand binding (ligand: [3H] Mesulergine); assay type: cell membranes, CHO-K1, Membrane; settings: cho-k1; Not Active = under 50% inhibition at 10 µM
T2 sequence (P28335 whole entry): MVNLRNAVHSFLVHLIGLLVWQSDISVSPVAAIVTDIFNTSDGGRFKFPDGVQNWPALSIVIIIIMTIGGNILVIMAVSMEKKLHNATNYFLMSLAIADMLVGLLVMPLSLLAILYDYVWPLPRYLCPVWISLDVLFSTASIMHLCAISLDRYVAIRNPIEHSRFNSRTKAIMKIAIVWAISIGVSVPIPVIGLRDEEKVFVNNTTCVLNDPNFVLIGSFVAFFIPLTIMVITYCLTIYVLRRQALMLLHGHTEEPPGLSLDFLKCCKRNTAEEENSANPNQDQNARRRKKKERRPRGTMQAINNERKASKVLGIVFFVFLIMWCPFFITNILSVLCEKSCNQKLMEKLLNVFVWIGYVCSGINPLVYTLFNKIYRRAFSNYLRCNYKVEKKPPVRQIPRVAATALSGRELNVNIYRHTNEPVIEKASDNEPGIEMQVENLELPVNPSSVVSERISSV

[3] = DRUGMATRIX: Purinergic P2X radioligand binding (ligand: [3H] alpha, beta-Methylene-ATP); assay type: cell membranes, Oryctolagus cuniculus, New Zealand albino, Urinary bladder, Membrane; settings: Not Active = under 50% inhibition at 10 µM
[4] = molecular target: T3, Muscarinic acetylcholine receptor M2 (Homo sapiens, UniProt P08172); assay type: cell membranes, CHO-K1, Membrane; settings: cho-k1; further: in other assays of this panel Not Active means under 50% inhibition at 10 µM
T3 sequence (P08172 whole entry): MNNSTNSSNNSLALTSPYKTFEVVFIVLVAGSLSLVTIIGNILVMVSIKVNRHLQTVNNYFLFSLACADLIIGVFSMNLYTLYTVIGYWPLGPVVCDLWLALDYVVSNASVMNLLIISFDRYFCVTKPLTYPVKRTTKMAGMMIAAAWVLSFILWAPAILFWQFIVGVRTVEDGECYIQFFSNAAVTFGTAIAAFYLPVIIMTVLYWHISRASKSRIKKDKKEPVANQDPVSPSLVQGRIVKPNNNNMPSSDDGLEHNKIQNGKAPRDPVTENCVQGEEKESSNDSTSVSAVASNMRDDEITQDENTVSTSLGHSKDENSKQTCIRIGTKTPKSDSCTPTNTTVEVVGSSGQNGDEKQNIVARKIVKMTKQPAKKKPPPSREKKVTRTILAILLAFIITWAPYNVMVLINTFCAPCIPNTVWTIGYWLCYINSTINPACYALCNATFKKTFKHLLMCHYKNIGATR

Glycine receptor = Glycine receptor (Rattus norvegicus, UniProt P22771+P24524+P07727+P20781); assay type: cell membranes, Wistar, Spinal cord, Membrane; further: in other assays of this panel Not Active means under 50% inhibition at 10 µM
Adenosine receptor A1 = molecular target: T4, Adenosine receptor A1 (Homo sapiens, UniProt P30542); assay type: cell membranes, CHO, Membrane; settings: cho
T4 sequence (P30542 whole entry): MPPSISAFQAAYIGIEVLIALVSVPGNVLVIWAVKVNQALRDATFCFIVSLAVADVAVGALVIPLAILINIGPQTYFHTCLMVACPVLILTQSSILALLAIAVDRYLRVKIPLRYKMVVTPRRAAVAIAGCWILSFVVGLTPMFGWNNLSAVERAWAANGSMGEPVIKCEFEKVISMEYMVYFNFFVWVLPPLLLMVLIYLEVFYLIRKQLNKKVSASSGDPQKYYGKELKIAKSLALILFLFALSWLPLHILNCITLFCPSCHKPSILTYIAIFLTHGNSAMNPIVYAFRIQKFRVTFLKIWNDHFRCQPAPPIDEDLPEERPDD

[5] = DRUGMATRIX: ATPase, Na+/K+ enzyme inhibition (substrate: ATP); assay type: tissue-based, Sus scrofa, Heart; settings: Not Active = under 50% inhibition at 10 µM
Neutrophil elastase = molecular target: T5, Neutrophil elastase (Homo sapiens, UniProt P08246); assay type: tissue-based
T5 sequence (P08246 whole entry): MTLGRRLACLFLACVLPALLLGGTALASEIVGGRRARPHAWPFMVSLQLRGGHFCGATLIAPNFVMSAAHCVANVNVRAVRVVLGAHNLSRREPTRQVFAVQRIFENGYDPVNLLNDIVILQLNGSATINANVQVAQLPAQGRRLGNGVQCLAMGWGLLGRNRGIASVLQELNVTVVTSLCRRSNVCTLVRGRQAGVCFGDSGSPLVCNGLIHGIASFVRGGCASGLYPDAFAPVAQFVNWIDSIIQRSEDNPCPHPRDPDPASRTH

[6] = DRUGMATRIX: Interleukin IL-1 radioligand binding (ligand: [125I] interleukin 1beta); assay type: cell membranes, Membrane; settings: nih3t3; Not Active = under 50% inhibition at 10 µM
Melanocortin receptor 5 = Melanocortin receptor 5 (Homo sapiens, UniProt P33032); assay type: cell membranes, HEK293, Membrane; settings: hek293; further: in other assays of this panel Not Active means under 50% inhibition at 10 µM
Chain of Melanocortin receptor 5 (P33032 whole entry): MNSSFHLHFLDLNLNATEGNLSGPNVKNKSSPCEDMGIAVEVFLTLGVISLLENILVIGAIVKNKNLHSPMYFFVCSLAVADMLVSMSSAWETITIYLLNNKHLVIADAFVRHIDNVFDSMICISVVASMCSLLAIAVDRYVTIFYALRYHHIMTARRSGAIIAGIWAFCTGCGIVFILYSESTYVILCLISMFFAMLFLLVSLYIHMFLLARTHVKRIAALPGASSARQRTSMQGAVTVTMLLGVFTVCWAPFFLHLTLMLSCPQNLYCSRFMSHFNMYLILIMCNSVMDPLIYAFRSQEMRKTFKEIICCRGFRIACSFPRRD

Chain of Acetylcholinesterase (P22303 whole entry): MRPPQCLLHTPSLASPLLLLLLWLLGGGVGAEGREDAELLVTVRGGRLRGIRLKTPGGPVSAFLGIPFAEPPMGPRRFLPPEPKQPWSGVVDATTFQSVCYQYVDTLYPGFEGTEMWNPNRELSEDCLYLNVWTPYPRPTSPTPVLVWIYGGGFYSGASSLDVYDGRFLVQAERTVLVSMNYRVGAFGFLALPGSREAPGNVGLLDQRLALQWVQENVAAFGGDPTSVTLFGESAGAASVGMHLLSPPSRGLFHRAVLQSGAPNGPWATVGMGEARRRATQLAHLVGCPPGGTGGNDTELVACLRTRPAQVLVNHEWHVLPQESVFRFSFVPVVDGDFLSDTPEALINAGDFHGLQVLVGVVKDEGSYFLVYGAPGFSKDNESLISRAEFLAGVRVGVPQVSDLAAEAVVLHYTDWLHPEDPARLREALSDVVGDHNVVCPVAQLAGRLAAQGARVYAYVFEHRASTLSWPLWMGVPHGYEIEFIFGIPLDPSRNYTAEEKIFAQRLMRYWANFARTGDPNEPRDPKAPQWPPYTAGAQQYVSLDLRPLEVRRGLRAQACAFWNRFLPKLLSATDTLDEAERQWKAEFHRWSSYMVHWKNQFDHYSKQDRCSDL

Nc1nnc(-c2cccc(Cl)c2Cl)c(N)n1 [LAMOTRIGINE]
Not Active: IC50 (Acetylcholinesterase) | IC50 [1] | IC50 (Substance-P receptor) | IC50 (Cathepsin G) | IC50 [2] | IC50 [3] | Ki [3] | IC50 [4] | IC50 (Glycine receptor) | IC50 (Adenosine receptor A1) | IC50 [5] | Ki [5] | IC50 (Neutrophil elastase) | IC50 [6] | Ki [6] | IC50 (Melanocortin receptor 5)

CCC[C@@H]1C[C@@H](C(=O)N[C@@H]([C@H]2O[C@H](SC)[C@H](O)[C@@H](O)[C@H]2O)[C@@H](C)O)N(C)C1 [LINCOMYCIN]
Not Active: IC50 (Acetylcholinesterase) | IC50 [1] | IC50 (Substance-P receptor) | IC50 (Cathepsin G) | IC50 [2] | IC50 [3] | Ki [3] | IC50 [4] | IC50 (Glycine receptor) | IC50 (Adenosine receptor A1) | IC50 [5] | Ki [5] | IC50 (Neutrophil elastase) | IC50 [6] | Ki [6] | IC50 (Melanocortin receptor 5)

NCCCC[C@H](N[C@@H](CCc1ccccc1)C(=O)O)C(=O)N1CCC[C@H]1C(=O)O [LISINOPRIL ANHYDROUS]
Not Active: IC50 (Acetylcholinesterase) | IC50 [1] | IC50 (Substance-P receptor) | IC50 (Cathepsin G) | IC50 [2] | IC50 [3] | Ki [3] | IC50 [4] | IC50 (Glycine receptor) | IC50 (Adenosine receptor A1) | IC50 [5] | Ki [5] | IC50 (Neutrophil elastase) | IC50 [6] | Ki [6] | IC50 (Melanocortin receptor 5)

COS(C)(=O)=O [METHANESULFONIC ACID METHYL ESTER]
Not Active: IC50 (Acetylcholinesterase) | IC50 [1] | IC50 (Substance-P receptor) | IC50 (Cathepsin G) | IC50 [2] | IC50 [3] | Ki [3] | IC50 [4] | IC50 (Glycine receptor) | IC50 (Adenosine receptor A1) | IC50 [5] | Ki [5] | IC50 (Neutrophil elastase) | IC50 [6] | Ki [6] | IC50 (Melanocortin receptor 5)

COC(=O)c1ccc(O)cc1 [METHYLPARABEN]
Not Active: IC50 (Acetylcholinesterase) | IC50 [1] | IC50 (Substance-P receptor) | IC50 (Cathepsin G) | IC50 [2] | IC50 [3] | Ki [3] | IC50 [4] | IC50 (Glycine receptor) | IC50 (Adenosine receptor A1) | IC50 [5] | Ki [5] | IC50 (Neutrophil elastase) | IC50 [6] | Ki [6] | IC50 (Melanocortin receptor 5)
